# Assays:
# A549 cells = experiment: MTT assay, percent survival of A549 cells; assay type: cell-based; conditions: A549
# Protocol: 1. Prepare a suspension of A549 cells at 2×10^5 cells per mL in supplemented DMEM/F12 growth medium.
# 2. Plate 2×10^4 cells per well in a 96 well cell culture plate by adding 100 μL of stock suspension to each well.
# 3. For each platinum compound (already in solution), prepare a readily usable stock solution in DMEM/F12 medium.
# 4. For each compound generate triplicate trials of 0, 10, 20, 30, 40, 50, 60, and 70 μM concentration. This is achieved in situ by adding appropriate volumes of stock solution to each well along with the volume of untreated medium necessary to generate the desired concentration in a final volume of 200 μL.
# 5. Gently agitate plates to mix contents. Incubate at 37° C., 7% CO2 for 45 hours.
# 6. Add 20 μL of 5 mg/mL MTT solution (in PBS) to each well.
# 7. Gently agitate plates to mix contents and incubate an additional 3 hours to allow product development.
# 8. Remove plates from incubator and agitate to cause settling of formazan product.
# 9. Aspirate out liquid contents of each well using needle and syringe and discard.
# 10. Add 200 μL DMSO to each well to dissolve formazan product.
# 11. Agitate plates until all of the formazan product is in solution and no purple crystals remain on the bottom surface of the wells.
# 12. Read the absorbance of each well at […] using Varian software for Cary 50 UV-vis Spectrophotometer with fiber optic probe accessory.
# (§1) MTT assays are used for the quantitative determination of cellular proliferation and activation and for the quantitation of in vitro tumor cell sensitivity to anti-cancer compounds. The assay is based on the cleavage of the yellow tetrazolium salt MTT into purple colored formazan by metabolically active cells. Solubilized formazan product can be photometrically quantitated using an ELISA plate reader. A decrease in the number of living cells results in a decrease in total metabolic activity which leads to a decrease in color formation. Platinum complexes of the present invention were tested in MTT assays using A549 cells to determine anti-cancer cell activity. […] FIGS. 1, 2, and 4 show percent survival versus platinum complex concentration in graphical form.
# as §1, with “FIGS. 8, 9,” for “FIGS. 1, 2,”, “and 11” for “and 4”
# Stat3 = biological target: T1, Stat3 (Mus musculus, UniProt P42227); experiment: EMSA of nuclear extracts, Stat3 DNA-binding activity to hSIE probe; assay type: biochemical; conditions: in vitro
# T1 construct: Nuclear extracts were prepared from NIH3T3/hEGFR cell that overexpress human epidermal growth factor (EGF) receptor and stimulated with EGF; endogenous in cells; host or cells: NIH3T3/hEGFR fibroblasts, EGF-stimulated (6 ng/ml, 15 min), nuclear extract
# T1 sequence (P42227 whole entry): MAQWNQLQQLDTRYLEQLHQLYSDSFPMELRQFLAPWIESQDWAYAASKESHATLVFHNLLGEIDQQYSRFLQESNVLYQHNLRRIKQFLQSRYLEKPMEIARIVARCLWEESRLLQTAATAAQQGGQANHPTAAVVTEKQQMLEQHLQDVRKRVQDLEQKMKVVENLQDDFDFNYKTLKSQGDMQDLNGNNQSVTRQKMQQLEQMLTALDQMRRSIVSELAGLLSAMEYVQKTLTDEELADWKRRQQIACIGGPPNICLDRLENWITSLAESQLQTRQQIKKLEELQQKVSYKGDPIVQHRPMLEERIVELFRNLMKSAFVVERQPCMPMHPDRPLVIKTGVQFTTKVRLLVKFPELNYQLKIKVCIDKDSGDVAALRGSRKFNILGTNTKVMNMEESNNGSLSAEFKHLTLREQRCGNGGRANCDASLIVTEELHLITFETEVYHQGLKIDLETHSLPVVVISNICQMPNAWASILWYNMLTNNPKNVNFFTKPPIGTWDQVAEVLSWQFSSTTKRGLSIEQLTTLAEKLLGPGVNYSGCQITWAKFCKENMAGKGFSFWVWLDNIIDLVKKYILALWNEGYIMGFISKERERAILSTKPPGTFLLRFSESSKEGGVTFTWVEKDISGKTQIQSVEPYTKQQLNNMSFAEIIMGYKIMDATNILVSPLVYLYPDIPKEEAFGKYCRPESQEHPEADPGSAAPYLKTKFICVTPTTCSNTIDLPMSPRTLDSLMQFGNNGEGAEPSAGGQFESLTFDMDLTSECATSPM
# Protocol: Nuclear Extract Preparation and Analysis by EMSA of HK-Designated Platinum Complexes.
# Nuclear extracts were prepared from NIH3T3/hEGFR cell that overexpress human epidermal growth factor (EGF) receptor and stimulated with EGF (6 ng/ml) for 15 min. Nuclear extracts were pre-incubated with compounds for 30 min at room temperature prior to incubation with radiolabeled probe. The ^32P-labeled oligonucleotide probe used is hSIE (high affinity sis-inducible element, m67 variant, 5′-[…]-3′) (SEQ ID NO:1) that binds both Stat1 and Stat3.
# Other platinum (IV) complexes were evaluated for inhibitory activity against STAT DNA-binding in vitro.
smiles,measurement,setting,value
"N.N.[Cl][Pt][Cl] [Cis-Pt, Cis-diammineoplatinum(II) dichloride, reference compound]",Average Absorbance,"A549 cells; Table 1, 10 μM",2.3196
same,Percent Survival,"A549 cells; Table 1, 10 μM",98.2423%
same,Average Absorbance,"A549 cells; Table 1, 20 μM",2.3228
same,Percent Survival,"A549 cells; Table 1, 20 μM",98.3779%
same,Average Absorbance,"A549 cells; Table 1, 30 μM",2.3526
same,Percent Survival,"A549 cells; Table 1, 30 μM",99.6400%
same,Average Absorbance,"A549 cells; Table 1, 40 μM",2.1315
same,Percent Survival,"A549 cells; Table 1, 40 μM",90.2757%
same,Average Absorbance,"A549 cells; Table 1, 50 μM",1.8447
same,Percent Survival,"A549 cells; Table 1, 50 μM",78.1288%
same,Average Absorbance,"A549 cells; Table 1, 60 μM",1.1039
same,Percent Survival,"A549 cells; Table 1, 60 μM",46.7536%
same,Average Absorbance,"A549 cells; Table 1, 70 μM",0.7118
same,Percent Survival,"A549 cells; Table 1, 70 μM",30.1470%
same,IC50,"A549 cells; Table 2, linear trend from percent survival vs. concentration data of Table 1, read-out: Calculated IC 50 (uM concentration)",63.3 µM
same,Average Absorbance,"A549 cells; Table 3, 10 μM",2.4665
same,Percent Survival,"A549 cells; Table 3, 10 μM",100.9661%
same,Average Absorbance,"A549 cells; Table 3, 20 μM",2.4556
same,Percent Survival,"A549 cells; Table 3, 20 μM",100.5199%
same,Average Absorbance,"A549 cells; Table 3, 30 μM",2.2686
same,Percent Survival,"A549 cells; Table 3, 30 μM",92.8650%
same,Average Absorbance,"A549 cells; Table 3, 40 μM",1.7575
same,Percent Survival,"A549 cells; Table 3, 40 μM",71.9432%
same,Average Absorbance,"A549 cells; Table 3, 50 μM",1.2828
same,Percent Survival,"A549 cells; Table 3, 50 μM",52.5114%
same,Average Absorbance,"A549 cells; Table 3, 60 μM",0.7971
same,Percent Survival,"A549 cells; Table 3, 60 μM",32.6293%
same,Average Absorbance,"A549 cells; Table 3, 70 μM",0.6718
same,Percent Survival,"A549 cells; Table 3, 70 μM",27.5001%
same,Average Absorbance,"A549 cells; Table 4, 10 μM",0.5299
same,Percent Survival,"A549 cells; Table 4, 10 μM",83.1%
same,Average Absorbance,"A549 cells; Table 4, 20 μM",0.6575
same,Percent Survival,"A549 cells; Table 4, 20 μM",103.1%
same,Average Absorbance,"A549 cells; Table 4, 30 μM",0.497
same,Percent Survival,"A549 cells; Table 4, 30 μM",77.95%
same,Average Absorbance,"A549 cells; Table 4, 40 μM",0.4763
same,Percent Survival,"A549 cells; Table 4, 40 μM",74.69%
same,Average Absorbance,"A549 cells; Table 4, 50 μM",0.3644
same,Percent Survival,"A549 cells; Table 4, 50 μM",57.14%
same,Average Absorbance,"A549 cells; Table 4, 60 μM",0.2814
same,Percent Survival,"A549 cells; Table 4, 60 μM",44.13%
same,Average Absorbance,"A549 cells; Table 4, 70 μM",0.1854
same,Percent Survival,"A549 cells; Table 4, 70 μM",29.07%
same,Average Absorbance,"A549 cells; Table 6, 10 μM",2.3196
same,Percent Survival,"A549 cells; Table 6, 10 μM",98.2423%
same,Average Absorbance,"A549 cells; Table 6, 20 μM",2.3228
same,Percent Survival,"A549 cells; Table 6, 20 μM",98.3779%
same,Average Absorbance,"A549 cells; Table 6, 30 μM",2.3526
same,Percent Survival,"A549 cells; Table 6, 30 μM",99.6400%
same,Average Absorbance,"A549 cells; Table 6, 40 μM",2.1315
same,Percent Survival,"A549 cells; Table 6, 40 μM",90.2757%
same,Average Absorbance,"A549 cells; Table 6, 50 μM",1.8447
same,Percent Survival,"A549 cells; Table 6, 50 μM",78.1288%
same,Average Absorbance,"A549 cells; Table 6, 60 μM",1.1039
same,Percent Survival,"A549 cells; Table 6, 60 μM",46.7536%
same,Average Absorbance,"A549 cells; Table 6, 70 μM",0.7118
same,Percent Survival,"A549 cells; Table 6, 70 μM",30.1470%
same,Average Absorbance,"A549 cells; Table 8, 10 μM",2.4665
same,Percent Survival,"A549 cells; Table 8, 10 μM",100.9661%
same,Average Absorbance,"A549 cells; Table 8, 20 μM",2.4556
same,Percent Survival,"A549 cells; Table 8, 20 μM",100.5199%
same,Average Absorbance,"A549 cells; Table 8, 30 μM",2.2686
same,Percent Survival,"A549 cells; Table 8, 30 μM",92.8650%
same,Average Absorbance,"A549 cells; Table 8, 40 μM",1.7575
same,Percent Survival,"A549 cells; Table 8, 40 μM",71.9432%
same,Average Absorbance,"A549 cells; Table 8, 50 μM",1.2828
same,Percent Survival,"A549 cells; Table 8, 50 μM",52.5114%
same,Average Absorbance,"A549 cells; Table 8, 60 μM",0.7971
same,Percent Survival,"A549 cells; Table 8, 60 μM",32.6293%
same,Average Absorbance,"A549 cells; Table 8, 70 μM",0.6718
same,Percent Survival,"A549 cells; Table 8, 70 μM",27.5001%
same,Average Absorbance,"A549 cells; Table 9, 10 μM",0.5299
same,Percent Survival,"A549 cells; Table 9, 10 μM",83.1%
same,Average Absorbance,"A549 cells; Table 9, 20 μM",0.6575
same,Percent Survival,"A549 cells; Table 9, 20 μM",103.1096%
same,Average Absorbance,"A549 cells; Table 9, 30 μM",0.497
same,Percent Survival,"A549 cells; Table 9, 30 μM",77.95%
same,Average Absorbance,"A549 cells; Table 9, 40 μM",0.4763
same,Percent Survival,"A549 cells; Table 9, 40 μM",74.69%
same,Average Absorbance,"A549 cells; Table 9, 50 μM",0.3644
same,Percent Survival,"A549 cells; Table 9, 50 μM",57.14%
same,Average Absorbance,"A549 cells; Table 9, 60 μM",0.2814
same,Percent Survival,"A549 cells; Table 9, 60 μM",44.13%
same,Average Absorbance,"A549 cells; Table 9, 70 μM",0.1854
same,Percent Survival,"A549 cells; Table 9, 70 μM",29.07%
CC(=O)N[C@H]1C(O)O[C@H](CO)[C@@H](O)[C@@H]1O (stereo partly shown) [N-acetyl glucosamine],Average Absorbance,"A549 cells; Table 9, 10 μM",0.6179
same,Percent Survival,"A549 cells; Table 9, 10 μM",96.89%
same,Average Absorbance,"A549 cells; Table 9, 20 μM",0.378
same,Percent Survival,"A549 cells; Table 9, 20 μM",59.27%
same,Average Absorbance,"A549 cells; Table 9, 30 μM",0.1735
same,Percent Survival,"A549 cells; Table 9, 30 μM",27.21%
same,Average Absorbance,"A549 cells; Table 9, 40 μM",0.02397
same,Percent Survival,"A549 cells; Table 9, 40 μM",3.758%
same,Average Absorbance,"A549 cells; Table 9, 50 μM",0.0397
same,Percent Survival,"A549 cells; Table 9, 50 μM",6.226%
same,Average Absorbance,"A549 cells; Table 9, 60 μM",0.05523
same,Percent Survival,"A549 cells; Table 9, 60 μM",8.662%
same,Average Absorbance,"A549 cells; Table 9, 70 μM",0.01897
same,Percent Survival,"A549 cells; Table 9, 70 μM",2.974%
O=C1C(Br)=CC2=C(c3ccccc3C(=O)[O-])C3C=C(Br)C([O-])=C(Br)C3OC2=C1Br.[NH2][Pt]([NH2])([Cl])([Cl])[N+](=O)[O-] (stereo not shown) [CPA-30],Disruption of Stat3 activity / ability to bind its consensus binding sequence,Stat3,strongly disrupt Stat3 activity

# — patent US7759510B2, “Platinum complexes and methods of use” (University of South Florida, priority 2003, dated 2010)
